These results are taken from ChEMBL document CHEMBL1201862, “PubChem BioAssay data set” (2004).

Test in all cases: NCI-60 cell line screen, 48 h
In assay [1] the test system is 786-0.
Assay [2] concerns BT-549.
For assay [3], the system named is CCRF-CEM.
The subject of assay [4] is COLO 205.
Assay [5] concerns Hs-578T.
For assay [6], the system named is IGROV-1.
In assay [7] the test system is KM12.
In assay [8] the test system is MCF7.
Assay [9] deals with MDA-MB-231.
The subject of assay [10] is MDA-MB-435.
Assay [11] relates to MDA-N.
Assay [12] deals with MOLT-4.
Assay [13] relates to PC-3.
The test system of assay [14] is SN12C.
Assay [15] deals with T47D.
The subject of assay [16] is UACC-62.
In assay [17] the test system is HL-60.
For assay [18], the system named is SF-539.

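Cells were grown in 96-well plates and exposed to each compound for 48 hours at five concentrations; endpoints were interpolated linearly between bracketing concentrations, or set to the highest concentration if not reached. GI50 = concentration required for 50% inhibition of growth.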 Active and inactive are the calls of the source. No stated cut-off is given here; in the data, active = GI50 up to about 1.1 µM and inactive = higher.

Take `COC12OC3(C4OC41)C(C(=O)O[C@H]3CO[Si](C)(C)C(C)(C)C)C2C(=O)Oc1ccccc1` (stereo partly specified): the GI50 in assay [1] is > 100 µM (inactive); in assay [2] it was 0.991 µM (active); in [3], 38.1 µM (inactive); in assay [4], > 100 µM (inactive); in [5] it was > 100 µM (inactive); in assay [6], > 100 µM (inactive). Moreover, the GI50 in assay [7] was > 100 µM (inactive); in [8], > 100 µM (inactive); in assay [9] it was 57.3 µM (inactive); in assay [10] it was > 100 µM (inactive); in assay [11], > 100 µM (inactive); in assay [12], > 100 µM (inactive). Further, the GI50 in [13], in [14], in assay [15] and in assay [16] was > 100 µM (inactive) each time.
For the compound `CC(C)N(C)C(=O)C12C3C4C1C1C2C3C41C#N` (stereo unspecified), the GI50 in assay [1], in assay [2], in assay [3], in assay [4], in assay [17] and in assay [5] was > 100 µM (inactive) throughout. Also, the GI50 in [6], in assay [7], in assay [8], in assay [9], in [10] and in assay [11] was > 100 µM (inactive) in each case. The GI50 in assay [12], in [13], in assay [18], in [14], in assay [15] and in assay [16] was > 100 µM (inactive) each time.
For the compound `COCCN(C(=O)c1ccccc1)C1CCC(=O)c2[nH]c3ccccc3c21` (stereo unspecified), the GI50 in assay [1] was 3.4 µM (inactive); in assay [2] it was 2.7 µM (inactive); in [3], 3.64 µM (inactive); in assay [4] it was 15.5 µM (inactive); in [17], 8.87 µM (inactive); in [5], 15.5 µM (inactive). The GI50 in assay [6] was 3.65 µM (inactive); in assay [7], 8.41 µM (inactive); in assay [8], 6.27 µM (inactive); in assay [9], 4.23 µM (inactive); in [10], 6.87 µM (inactive); in [12] it was 6.64 µM (inactive). For the same compound, the GI50 in [13] was 5.25 µM (inactive); in assay [18] it was 7.1 µM (inactive); in assay [14] it was 7.85 µM (inactive); in assay [15], 16.2 µM (inactive); in assay [16], 17.8 µM (inactive).
As for `Cn1c(=O)n2n(c1=O)C(C)(C13CC4CC(CC(C4)C1)C3)C13CC4CC(CC1C4)CC23` (stereo unspecified), the GI50 in assay [2] was > 100 µM (inactive); in [3] it was > 100 µM (inactive); in assay [4] it was > 100 µM (inactive); in [17], 6.76 µM (inactive); in assay [5] it was > 100 µM (inactive); in assay [6] it was > 100 µM (inactive). In addition, the GI50 in assay [7] is > 100 µM (inactive); in assay [8], > 100 µM (inactive); in assay [9], > 100 µM (inactive); in [10], > 100 µM (inactive); in assay [11], > 100 µM (inactive); in assay [12], 89.9 µM (inactive). The GI50 in [13], in assay [18], in assay [14], in assay [15] and in [16] was > 100 µM (inactive) in each case.
As for `COc1ccc(NC(=S)c2ccc([N+](=O)[O-])o2)cc1`, the GI50 in assay [1] is 1.97 µM (inactive); in assay [2], 1.85 µM (inactive); in assay [3], 2.14 µM (inactive); in [4], 0.386 µM (active); in assay [17], 1.99 µM (inactive); in [5], 2.33 µM (inactive). For the same compound, the GI50 in [6] was 1.82 µM (inactive); in [7], 1.6 µM (inactive); in [8], 1.8 µM (inactive); in assay [9], 2.48 µM (inactive); in [10] it was 2.06 µM (inactive); in [11], 2.29 µM (inactive). Besides, the GI50 was 3.22 µM (inactive) in assay [12]; 1.32 µM (inactive) in assay [13]; 0.178 µM (active) in assay [18]; 2.13 µM (inactive) in assay [14]; 3.01 µM (inactive) in assay [15]; 1.77 µM (inactive) in assay [16].
As to `Cc1cc2nc3c(C(O)CO)nn(-c4ccccc4)c3nc2cc1C` (stereo unspecified), the GI50 in assay [1] was 17.9 µM (inactive); in assay [2], 18.8 µM (inactive); in assay [17], 21.6 µM (inactive); in assay [5] it was 31.6 µM (inactive); in assay [6], 17.3 µM (inactive); in assay [7], 16.2 µM (inactive). The GI50 was 20.2 µM (inactive) in assay [8]; 22.1 µM (inactive) in assay [9]; 21.2 µM (inactive) in [10]; 18.3 µM (inactive) in [11]; 4.3 µM (inactive) in [12]; 14.4 µM (inactive) in assay [13]. The GI50 in assay [18] was 20.7 µM (inactive); in [14], 13.8 µM (inactive); in assay [15] it was 11.5 µM (inactive).
As for `Cc1c(Cc2ccccc2)n(COCCCO)c(=O)[nH]c1=O`, the GI50 in assay [1], in assay [2], in assay [3], in [4], in [5] and in [6] was > 100 µM (inactive) each time. Further, the GI50 in [7], in assay [8], in assay [9], in assay [10], in assay [11] and in assay [12] was > 100 µM (inactive) each time. The GI50 in assay [13], in assay [18], in assay [14], in assay [15] and in assay [16] was > 100 µM (inactive) each time.
In the case of `c1ccc2c(c1)c1c(n2CCOCCCN2CCCCC2)CCCC1`, the GI50 in [2] was 15.5 µM (inactive); in assay [4] it was 20.4 µM (inactive); in assay [17] it was 10.1 µM (inactive); in assay [5], 20.1 µM (inactive); in assay [6] it was 14.7 µM (inactive); in [7], 15 µM (inactive). Further, the GI50 is 16.1 µM (inactive) in [8]; 20.5 µM (inactive) in assay [9]; 18.1 µM (inactive) in [10]; 21.8 µM (inactive) in assay [11]; 4.36 µM (inactive) in assay [12]; 13.1 µM (inactive) in assay [13]. Besides, the GI50 is 15.7 µM (inactive) in assay [18], 13.6 µM (inactive) in assay [14] and 17.2 µM (inactive) in assay [15].
As to `N#C[C@H](c1ccccn1)c1nc2ccccc2nc1Cl`, the GI50 was > 100 µM (inactive) in assay [1]; > 100 µM (inactive) in [2]; > 100 µM (inactive) in assay [3]; > 100 µM (inactive) in assay [4]; 74.6 µM (inactive) in [17]; > 100 µM (inactive) in assay [5]. Besides, the GI50 was > 100 µM (inactive) in [6]; 36.5 µM (inactive) in assay [7]; > 100 µM (inactive) in assay [8]; > 100 µM (inactive) in assay [9]; > 100 µM (inactive) in [10]; > 100 µM (inactive) in assay [11]. Further, the GI50 in assay [12], in [13], in assay [18], in assay [14], in assay [15] and in [16] was > 100 µM (inactive) in each case.
